ChEMBL document CHEMBL6083262, “Stereorandomized Oncocins with Preserved Ribosome Binding and Antibacterial Activity” (J Med Chem, 2024)
In brackets after ≈: the same amount, converted by molar mass. Activity calls are given as the source filed them. The rule behind the calls is not given here. Non-standard residues stand in square brackets, D forms with d. Residues, ends and D or L forms follow the SMILES beside them. ξ: configuration not given here. ξP = O=C(O)C1CCCN1

Experiments:
[1] = test system: Klebsiella pneumoniae; assay: Antimicrobial activity against Klebsiella pneumoniae NCTC 418 incubated for 16 to 20 hrs in 12.5 % muller hinton medium by broth microdilution method; format: functional; conditions: time 16-20 hrs
[2] = test system: Pseudomonas aeruginosa; assay: Antimicrobial activity against Pseudomonas aeruginosa PAO1 incubated for 16 to 20 hrs in full muller hinton medium by broth microdilution method; format: functional; conditions: time 16-20 hrs
[3] = Hemolytic activity in human RBC incubated for 4 hrs; format: toxicity, cell-based; conditions: erythrocyte
[4] = test system: Acinetobacter baumannii; assay: Antimicrobial activity against Acinetobacter baumannii ATCC 19606 incubated for 16 to 20 hrs in full muller hinton medium by broth microdilution method; format: functional; conditions: time 16-20 hrs
[5] = test system: Staphylococcus aureus; assay: Antimicrobial activity against methicillin-resistant Staphylococcus aureus COL incubated for 16 to 20 hrs in full muller hinton medium by broth microdilution method; format: functional; conditions: time 16-20 hrs
[6] = test system: Pseudomonas aeruginosa; assay: Antimicrobial activity against Pseudomonas aeruginosa PAO1 incubated for 16 to 20 hrs in 12.5 % muller hinton medium by broth microdilution method; format: functional; conditions: time 16-20 hrs
[7] = test system: Klebsiella pneumoniae; assay: Antimicrobial activity against Klebsiella pneumoniae NCTC 418 incubated for 16 to 20 hrs in full muller hinton medium by broth microdilution method; format: functional; conditions: time 16-20 hrs
[8] = test system: Staphylococcus aureus; assay: Antimicrobial activity against methicillin-resistant Staphylococcus aureus COL incubated for 16 to 20 hrs in 12.5 % muller hinton medium by broth microdilution method; format: functional; conditions: time 16-20 hrs
[9] = test system: Escherichia coli; assay: Antimicrobial activity against Escherichia coli W3110 incubated for 16 to 20 hrs in 12.5 % muller hinton medium by broth microdilution method; format: functional; conditions: time 16-20 hrs
[10] = test system: Klebsiella pneumoniae; assay: Bacteriostatic activity against Klebsiella pneumoniae assessed as detachment of inner membrane from outer membrane by measuring a large void at 8 times MIC in full muller hinton medium by transmission electron microscopic analysis; format: functional, organism-based
[11] = test system: Klebsiella pneumoniae; assay: Bacteriostatic activity against Klebsiella pneumoniae assessed as membrane perturbation at 8 times MIC in full muller hinton medium by transmission electron microscopic analysis; format: functional, organism-based
[12] = test system: Escherichia coli; assay: Bacteriostatic activity against Escherichia coli at 8 times MIC in full muller hinton medium by Time-kill assay; format: functional, organism-based
[13] = test system: Klebsiella pneumoniae; assay: Bacteriostatic activity against Klebsiella pneumoniae assessed as small intracellular vesicles at 8 times MIC in full muller hinton medium by transmission electron microscopic analysis; format: functional, organism-based
[14] = test system: Escherichia coli; assay: Bacteriostatic activity against Escherichia coli assessed as detachment of inner membrane from outer membrane by measuring a large void at 8 times MIC in full muller hinton medium by transmission electron microscopic analysis; format: functional, organism-based
[15] = test system: Escherichia coli; assay: Bacteriostatic activity against Escherichia coli assessed as membrane perturbation at 8 times MIC in full muller hinton medium by transmission electron microscopic analysis; format: functional, organism-based
[16] = test system: Klebsiella pneumoniae; assay: Bacteriostatic activity against Klebsiella pneumoniae at 8 times MIC in full muller hinton medium by Time-kill assay; format: functional, organism-based
[17] = test system: Escherichia coli; assay: Bacteriostatic activity against Escherichia coli assessed as small intracellular vesicles at 8 times MIC in full muller hinton medium by transmission electron microscopic analysis; format: functional, organism-based
[18] = test system: Pseudomonas aeruginosa; assay: Antibacterial activity against multidrug-resistant Pseudomonas aeruginosa PA14 2P4 harboring pmrB mutant incubated for 16 to 20 hrs in full muller hinton medium by broth microdilution method; format: functional; conditions: time 16-20 hrs
[19] = test system: Pseudomonas aeruginosa; assay: Antibacterial activity against multidrug-resistant Pseudomonas aeruginosa PA14 incubated for 16 to 20 hrs in full muller hinton medium by broth microdilution method; format: functional; conditions: time 16-20 hrs
[20] = test system: Pseudomonas aeruginosa; assay: Antibacterial activity against multidrug-resistant Pseudomonas aeruginosa PA14 4.13 harboring phoQ mutant incubated for 16 to 20 hrs in full muller hinton medium by broth microdilution method; format: functional; conditions: time 16-20 hrs
[21] = test system: Pseudomonas aeruginosa; assay: Antibacterial activity against multidrug-resistant Pseudomonas aeruginosa PA14 4.18 harboring pmrB mutant incubated for 16 to 20 hrs in full muller hinton medium by broth microdilution method; format: functional; conditions: time 16-20 hrs
[22] = test system: Pseudomonas aeruginosa; assay: Antibacterial activity against multidrug-resistant Pseudomonas aeruginosa clinical isolate ZEM9A incubated for 16 to 20 hrs in full muller hinton medium by broth microdilution method; format: functional; conditions: time 16-20 hrs
[23] = test system: Pseudomonas aeruginosa; assay: Antibacterial activity against multidrug-resistant Pseudomonas aeruginosa clinical isolate ZEM-1A incubated for 16 to 20 hrs in full muller hinton medium by broth microdilution method; format: functional; conditions: time 16-20 hrs
[24] = test system: rRNA; assay: Binding affinity to [gamma32 P-ATP] labeled Escherichia coli MG1655 23S ribosomal RNA (5-CCCTTGGGACCTACTTC-3') at U2506 position assessed as increase in band intensity at 1 uM incubated for 2.5 hrs in full muller hinton medium by CMCT based gel electrophoresis; format: nucleic-acid assay

Compound	MIC [1] [µg/mL]	MIC [2] [µg/mL]	MHC [3] [µg/mL]	MIC [4] [µg/mL]	MIC [5] [µg/mL]	MIC [6] [µg/mL]	MIC [7] [µg/mL]	Activity [10]	Activity [11]	Activity [12]	Activity [13]	Activity [14]	Activity [15]	Activity [16]	Activity [17]	also measured
CC[C@H](C)[C@H](NC(=O)[C@H](CCCNC(=N)N)NC(=O)[C@H](CCCNC(=N)N)NC(=O)[C@@H]1CCCN1C(=O)[C@@H]1CCCN1C(=O)[C@H](CCCNC(=N)N)NC(=O)[C@@H]1CCCN1C(=O)[C@H](CCCNC(=N)N)NC(=O)[C@@H]1CCCN1C(=O)[C@H](CC(C)C)NC(=O)[C@H](Cc1ccc(O)cc1)NC(=O)[C@H]1CCCN1C(=O)[C@@H]1CCCN1C(=O)[C@H](CCCCN)NC(=O)[C@H](CC(=O)O)NC(=O)[C@@H](N)C(C)C)C(=O)N[C@@H](Cc1ccc(O)cc1)C(=O)N[C@@H](CC(N)=O)C(=O)N[C@@H](CCCNC(=N)N)C(N)=O (H-VDKP[dP]YLPRPRPPRRIYNR-NH2)	> 16	> 64	> 1000	> 64	> 64	> 16	> 64	–	–	–	–	–	–	–	–	–
CC[C@H](C)[C@H](NC(=O)[C@H](CCCNC(=N)N)NC(=O)[C@H](CCCNC(=N)N)NC(=O)[C@@H]1CCCN1C(=O)[C@@H]1CCCN1C(=O)[C@H](CCCNC(=N)N)NC(=O)[C@@H]1CCCN1C(=O)[C@H](CCCNC(=N)N)NC(=O)[C@@H]1CCCN1C(=O)[C@H](CC(C)C)NC(=O)[C@H](Cc1ccc(O)cc1)NC(=O)[C@H]1CCCN1C(=O)[C@H]1CCCN1C(=O)[C@H](CCCCN)NC(=O)[C@H](CC(=O)O)NC(=O)[C@@H](N)C(C)C)C(=O)N[C@@H](Cc1ccc(O)cc1)C(=O)N[C@@H](CC(N)=O)C(=O)N[C@@H](CCCNC(=N)N)C(N)=O (H-VDK[dP][dP]YLPRPRPPRRIYNR-NH2)	> 16	> 64	> 1000	> 64	> 64	> 16	> 64	–	–	–	–	–	–	–	–	MIC [8]: > 64 µg/mL
CC[C@H](C)[C@H](NC(=O)[C@H](CCCNC(=N)N)NC(=O)[C@H](CCCNC(=N)N)NC(=O)[C@@H]1CCCN1C(=O)[C@@H]1CCCN1C(=O)[C@H](CCCNC(=N)N)NC(=O)[C@@H]1CCCN1C(=O)[C@H](CCCNC(=N)N)NC(=O)[C@@H]1CCCN1C(=O)[C@H](CC(C)C)NC(=O)[C@H](Cc1ccc(O)cc1)NC(=O)C1CCCN1C(=O)C1CCCN1C(=O)[C@H](CCCCN)NC(=O)[C@H](CC(=O)O)NC(=O)[C@@H](N)C(C)C)C(=O)N[C@@H](Cc1ccc(O)cc1)C(=O)N[C@@H](CC(N)=O)C(=O)N[C@@H](CCCNC(=N)N)C(N)=O (stereo partly specified) (H-VDK[ξP][ξP]YLPRPRPPRRIYNR-NH2)	8 (≈ 3.35 µM)	> 64	> 1000	–	> 64	> 16	–	–	–	–	–	–	–	–	–	MIC [9]: 4 µg/mL (≈ 1.67 µM)
CC(C)C[C@H](NC(=O)[C@H](CC(C)C)NC(=O)[C@H](CC(C)C)NC(=O)[C@@H](CCCCN)NC(=O)[C@H](CC(C)C)NC(=O)[C@H](CC(C)C)NC(=O)[C@@H](CCCCN)NC(=O)[C@H](CC(C)C)NC(=O)[C@H](CC(C)C)NC(=O)[C@@H](CCCCN)NC(=O)[C@H](N)CCCCN)C(N)=O (H-[dK][dK]LL[dK]LL[dK]LLL-NH2)	–	8 (≈ 6.05 µM)	1000	2.4 (≈ 1.82 µM)	–	–	8 (≈ 6.05 µM)	Active	Active; Few Membrane Perturbation Observed	Active	Active	Active	Active; Few Membrane Perturbation Observed	Active	Active	–
H-VDKPPYLPRPRPPRRIYNR-NH2 [ONCOCIN]	–	> 64	> 1000	–	> 64	–	–	Active	Active; Few Membrane Perturbation Observed	Active	Active	Active	Active; Few Membrane Perturbation Observed	Active	Active	MIC [18]: > 64 µg/mL; MIC [19]: > 64 µg/mL; MIC [20]: > 64 µg/mL; MIC [21]: > 64 µg/mL; MIC [22]: > 64 µg/mL; MIC [23]: > 64 µg/mL; Activity [24]: Active
